{"source": "patent US20070141067A1", "about": "“TARGETED CANCER THERAPY” (MAYO MEDICAL VENTURES, priority 2004, published 2007)", "tested_on": "HeLa cells", "test": "siRNA pretreatment with or without low dose doxorubicin, HeLa cell survival (drug sensitization)", "assay_type": "cell-based", "conditions": "50 fold lower than the LD90, dose response experiment", "method": "FIG. 6A is a graph illustrating percent cell survival following treatment with a gene-specific siRNA, with or without a low dose drug. Seventy-six test siRNAs (2 or 3 siRNAs per gene plus 6 control siRNAs), targeting 29 novel candidate genes, were transfected into HeLa cells.\nFIG. 6B is an enlarged section of the graph in FIG. 6A.\nFIG. 6C is a graph of the same data of FIG. 6A plotted as a percentage increase in sensitivity relative to the untreated sample.\nAn analysis was conducted by a similar method as described in FIG. 4, with two main differences. First, a different set of siRNAs were used. The siRNAs targeted 29 novel candidate genes that were previously identified by cDNA microarray and CGH analysis to be overexpressed and amplified in 14 breast cancer cell lines (Hyman et al., Cancer Res. 62:6240-5, 2002). There were 76 test siRNAs (2 or 3 siRNA per gene plus 6 control siRNAs). The second difference in this study was that the number of experiments was doubled to include a low dose doxorubicin (“Dox”) treatment. Four replicates of the no-drug control, and four replicates of the low dose drug were prepared for a total of 8 wells treated with each siRNA. The HeLa cells were transfected with siRNA as described above, and the cells were allowed to incubate for 24 hours to achieve silencing of the targeted genes. […]"}
{"molecule": "COc1cccc2c1C(=O)c1c(O)c3c(c(O)c1C2=O)C[C@@](O)(C(=O)CO)C[C@@H]3O[C@H]1C[C@H](N)[C@H](O)[C@H](C)O1", "note": "[Dox, doxorubicin]", "values": [{"measurement": "effect of low dose Dox on HeLa cell survival", "result": "no effect"}]}
